Assay results: PubChem BioAssay (NCI)
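1) Cells in 96-well plates. 2) Compound, 48 h, 5 concentrations. 3) Linear interpolation between surrounding doses. 4) Unreached endpoint = highest concentration. TGI: total growth inhibition.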

Each compound was assayed on M14 melanoma (assay: DTP human tumour cell line panel, 48 h).

Row | Compound | TGI [µM]
1 | CO[C@@H]1C[C@H]2[C@@H]3CC[C@H]([C@H](C)CO)[C@@]3(C)CC[C@@H]2[C@@]2(C)CC[C@H]3C[C@]312 | > 100
2 | Oc1ccc(-c2nc3ccc4ccccc4c3c3c2CCCC3)c(O)c1 | 35.9
3 | COc1ccc2c(c1)C(N)=C(c1ccccc1OC)C2=O | > 100
4 | COc1cc(C)c2c(c1C=O)Oc1c(c(C)c(O)c3c1C(O)OC3=O)OC2=O (stereo unspecified) | > 100

Each compound was assayed on 786-0 renal (assay: DTP human tumour cell line panel, 48 h).

Row | Compound | TGI [µM]
5 | CN(/N=C(\C(=O)O)c1ccccc1)C1=NCCCCN1 | > 100
6 | CO[C@@H]1C[C@H]2[C@@H]3CC[C@H]([C@H](C)CO)[C@@]3(C)CC[C@@H]2[C@@]2(C)CC[C@H]3C[C@]312 | > 100
7 | Oc1ccc(-c2nc3ccc4ccccc4c3c3c2CCCC3)c(O)c1 | 24
8 | COc1ccc2c(c1)C(N)=C(c1ccccc1OC)C2=O | > 100
9 | COc1cc(C)c2c(c1C=O)Oc1c(c(C)c(O)c3c1C(O)OC3=O)OC2=O (stereo unspecified) | > 100

Each compound was assayed on DU-145 prostate (assay: DTP human tumour cell line panel, 48 h).

Row | Compound | TGI [µM]
10 | CN(/N=C(\C(=O)O)c1ccccc1)C1=NCCCCN1 | > 100
11 | CO[C@@H]1C[C@H]2[C@@H]3CC[C@H]([C@H](C)CO)[C@@]3(C)CC[C@@H]2[C@@]2(C)CC[C@H]3C[C@]312 | > 100
12 | Oc1ccc(-c2nc3ccc4ccccc4c3c3c2CCCC3)c(O)c1 | > 100
13 | COc1ccc2c(c1)C(N)=C(c1ccccc1OC)C2=O | > 100
14 | COc1cc(C)c2c(c1C=O)Oc1c(c(C)c(O)c3c1C(O)OC3=O)OC2=O (stereo unspecified) | > 100

These compounds were tested on EKVX NSCLC (assay: DTP human tumour cell line panel, 48 h).

Row | Compound | TGI [µM]
15 | CN(/N=C(\C(=O)O)c1ccccc1)C1=NCCCCN1 | > 100
16 | CO[C@@H]1C[C@H]2[C@@H]3CC[C@H]([C@H](C)CO)[C@@]3(C)CC[C@@H]2[C@@]2(C)CC[C@H]3C[C@]312 | > 100
17 | Oc1ccc(-c2nc3ccc4ccccc4c3c3c2CCCC3)c(O)c1 | > 100
18 | COc1ccc2c(c1)C(N)=C(c1ccccc1OC)C2=O | > 100
19 | COc1cc(C)c2c(c1C=O)Oc1c(c(C)c(O)c3c1C(O)OC3=O)OC2=O (stereo unspecified) | > 100

What follows are compounds tested on MALME-3M melanoma (assay: DTP human tumour cell line panel, 48 h).

Row | Compound | TGI [µM]
20 | CN(/N=C(\C(=O)O)c1ccccc1)C1=NCCCCN1 | > 100
21 | CO[C@@H]1C[C@H]2[C@@H]3CC[C@H]([C@H](C)CO)[C@@]3(C)CC[C@@H]2[C@@]2(C)CC[C@H]3C[C@]312 | > 100
22 | Oc1ccc(-c2nc3ccc4ccccc4c3c3c2CCCC3)c(O)c1 | > 59.1
23 | COc1ccc2c(c1)C(N)=C(c1ccccc1OC)C2=O | > 100
24 | COc1cc(C)c2c(c1C=O)Oc1c(c(C)c(O)c3c1C(O)OC3=O)OC2=O (stereo unspecified) | 52.6

What follows are compounds tested on OVCAR-4 ovarian (assay: DTP human tumour cell line panel, 48 h).

Row | Compound | TGI [µM]
25 | CN(/N=C(\C(=O)O)c1ccccc1)C1=NCCCCN1 | > 100
26 | CO[C@@H]1C[C@H]2[C@@H]3CC[C@H]([C@H](C)CO)[C@@]3(C)CC[C@@H]2[C@@]2(C)CC[C@H]3C[C@]312 | > 100
27 | Oc1ccc(-c2nc3ccc4ccccc4c3c3c2CCCC3)c(O)c1 | > 100
28 | COc1ccc2c(c1)C(N)=C(c1ccccc1OC)C2=O | > 100
29 | COc1cc(C)c2c(c1C=O)Oc1c(c(C)c(O)c3c1C(O)OC3=O)OC2=O (stereo unspecified) | > 100

The compounds below were run on UACC-62 melanoma (assay: DTP human tumour cell line panel, 48 h).

Row | Compound | TGI [µM]
30 | CN(/N=C(\C(=O)O)c1ccccc1)C1=NCCCCN1 | > 100
31 | Oc1ccc(-c2nc3ccc4ccccc4c3c3c2CCCC3)c(O)c1 | > 50.6
32 | COc1ccc2c(c1)C(N)=C(c1ccccc1OC)C2=O | > 100
33 | COc1cc(C)c2c(c1C=O)Oc1c(c(C)c(O)c3c1C(O)OC3=O)OC2=O (stereo unspecified) | 81.7

The compounds below were run on HOP-62 NSCLC (assay: DTP human tumour cell line panel, 48 h).

Row | Compound | TGI [µM]
34 | CN(/N=C(\C(=O)O)c1ccccc1)C1=NCCCCN1 | > 100
35 | CO[C@@H]1C[C@H]2[C@@H]3CC[C@H]([C@H](C)CO)[C@@]3(C)CC[C@@H]2[C@@]2(C)CC[C@H]3C[C@]312 | > 100
36 | Oc1ccc(-c2nc3ccc4ccccc4c3c3c2CCCC3)c(O)c1 | > 100
37 | COc1ccc2c(c1)C(N)=C(c1ccccc1OC)C2=O | > 100
38 | COc1cc(C)c2c(c1C=O)Oc1c(c(C)c(O)c3c1C(O)OC3=O)OC2=O (stereo unspecified) | > 100

What follows are compounds tested on U251 CNS (assay: DTP human tumour cell line panel, 48 h).

Row | Compound | TGI [µM]
39 | CN(/N=C(\C(=O)O)c1ccccc1)C1=NCCCCN1 | > 100
40 | CO[C@@H]1C[C@H]2[C@@H]3CC[C@H]([C@H](C)CO)[C@@]3(C)CC[C@@H]2[C@@]2(C)CC[C@H]3C[C@]312 | 85.4
41 | Oc1ccc(-c2nc3ccc4ccccc4c3c3c2CCCC3)c(O)c1 | > 40.5
42 | COc1ccc2c(c1)C(N)=C(c1ccccc1OC)C2=O | > 100
43 | COc1cc(C)c2c(c1C=O)Oc1c(c(C)c(O)c3c1C(O)OC3=O)OC2=O (stereo unspecified) | > 100

What follows are compounds tested on K-562 leukemia (assay: DTP human tumour cell line panel, 48 h).

Row | Compound | TGI [µM]
44 | CN(/N=C(\C(=O)O)c1ccccc1)C1=NCCCCN1 | > 100
45 | CO[C@@H]1C[C@H]2[C@@H]3CC[C@H]([C@H](C)CO)[C@@]3(C)CC[C@@H]2[C@@]2(C)CC[C@H]3C[C@]312 | > 100
46 | Oc1ccc(-c2nc3ccc4ccccc4c3c3c2CCCC3)c(O)c1 | > 100
47 | COc1ccc2c(c1)C(N)=C(c1ccccc1OC)C2=O | > 100

Each compound was assayed on SK-MEL-5 melanoma (assay: DTP human tumour cell line panel, 48 h).

Row | Compound | TGI [µM]
48 | CN(/N=C(\C(=O)O)c1ccccc1)C1=NCCCCN1 | > 100
49 | CO[C@@H]1C[C@H]2[C@@H]3CC[C@H]([C@H](C)CO)[C@@]3(C)CC[C@@H]2[C@@]2(C)CC[C@H]3C[C@]312 | 78.1
50 | Oc1ccc(-c2nc3ccc4ccccc4c3c3c2CCCC3)c(O)c1 | 27.1
51 | COc1cc(C)c2c(c1C=O)Oc1c(c(C)c(O)c3c1C(O)OC3=O)OC2=O (stereo unspecified) | 61.5

Each compound was assayed on SW-620 colon (assay: DTP human tumour cell line panel, 48 h).

Row | Compound | TGI [µM]
52 | CN(/N=C(\C(=O)O)c1ccccc1)C1=NCCCCN1 | > 100
53 | CO[C@@H]1C[C@H]2[C@@H]3CC[C@H]([C@H](C)CO)[C@@]3(C)CC[C@@H]2[C@@]2(C)CC[C@H]3C[C@]312 | > 100
54 | Oc1ccc(-c2nc3ccc4ccccc4c3c3c2CCCC3)c(O)c1 | > 68
55 | COc1ccc2c(c1)C(N)=C(c1ccccc1OC)C2=O | > 100
56 | COc1cc(C)c2c(c1C=O)Oc1c(c(C)c(O)c3c1C(O)OC3=O)OC2=O (stereo unspecified) | > 100

Each compound was assayed on TK-10 renal (assay: DTP human tumour cell line panel, 48 h).

Row | Compound | TGI [µM]
57 | CN(/N=C(\C(=O)O)c1ccccc1)C1=NCCCCN1 | > 100
58 | CO[C@@H]1C[C@H]2[C@@H]3CC[C@H]([C@H](C)CO)[C@@]3(C)CC[C@@H]2[C@@]2(C)CC[C@H]3C[C@]312 | > 100
59 | Oc1ccc(-c2nc3ccc4ccccc4c3c3c2CCCC3)c(O)c1 | 97.9
60 | COc1ccc2c(c1)C(N)=C(c1ccccc1OC)C2=O | > 100
61 | COc1cc(C)c2c(c1C=O)Oc1c(c(C)c(O)c3c1C(O)OC3=O)OC2=O (stereo unspecified) | > 100

The compounds below were run on NCI/ADR-RES ovarian (assay: DTP human tumour cell line panel, 48 h).

Row | Compound | TGI [µM]
62 | CN(/N=C(\C(=O)O)c1ccccc1)C1=NCCCCN1 | > 100
63 | CO[C@@H]1C[C@H]2[C@@H]3CC[C@H]([C@H](C)CO)[C@@]3(C)CC[C@@H]2[C@@]2(C)CC[C@H]3C[C@]312 | > 100
64 | Oc1ccc(-c2nc3ccc4ccccc4c3c3c2CCCC3)c(O)c1 | > 100
65 | COc1ccc2c(c1)C(N)=C(c1ccccc1OC)C2=O | > 100
66 | COc1cc(C)c2c(c1C=O)Oc1c(c(C)c(O)c3c1C(O)OC3=O)OC2=O (stereo unspecified) | > 100

What follows are compounds tested on OVCAR-3 ovarian (assay: DTP human tumour cell line panel, 48 h).

Row | Compound | TGI [µM]
67 | CN(/N=C(\C(=O)O)c1ccccc1)C1=NCCCCN1 | > 100
68 | CO[C@@H]1C[C@H]2[C@@H]3CC[C@H]([C@H](C)CO)[C@@]3(C)CC[C@@H]2[C@@]2(C)CC[C@H]3C[C@]312 | > 100
69 | Oc1ccc(-c2nc3ccc4ccccc4c3c3c2CCCC3)c(O)c1 | > 100
70 | COc1ccc2c(c1)C(N)=C(c1ccccc1OC)C2=O | > 100
71 | COc1cc(C)c2c(c1C=O)Oc1c(c(C)c(O)c3c1C(O)OC3=O)OC2=O (stereo unspecified) | > 100
